From publication PMC10412597, “Small molecule branched-chain ketoacid dehydrogenase kinase (BDK) inhibitors with opposing effects on BDK protein levels” (Nature Communications, 2023)

Tests used:
TGFBR2 = TGFBR2 (Homo sapiens, UniProt P37173); parameters: Invitrogen Lantha screen kinase binding, per cent inhibition of binding; settings: 10 µM, binder
Description: (§1) To discover a potent and selective BDK inhibitor, a subset of the Pfizer compound collection was screened. […] Off target activity was assessed in both CEREP and kinase panels (Supplementary Tables 2, 3).

MYLK = MYLK (Homo sapiens, UniProt Q15746); parameters: Invitrogen Lantha screen kinase binding, per cent inhibition of binding; settings: 10 µM, binder
Description: as §1

TTK = TTK (Homo sapiens, UniProt P33981); parameters: Invitrogen Lantha screen kinase binding, per cent inhibition of binding; settings: 10 µM, binder
Description: as §1

CAMKK2 = CAMKK2 (Homo sapiens, UniProt Q96RR4); parameters: Invitrogen Lantha screen kinase binding, per cent inhibition of binding; settings: 10 µM, binder
Sequence of CAMKK2 (Q96RR4 whole entry): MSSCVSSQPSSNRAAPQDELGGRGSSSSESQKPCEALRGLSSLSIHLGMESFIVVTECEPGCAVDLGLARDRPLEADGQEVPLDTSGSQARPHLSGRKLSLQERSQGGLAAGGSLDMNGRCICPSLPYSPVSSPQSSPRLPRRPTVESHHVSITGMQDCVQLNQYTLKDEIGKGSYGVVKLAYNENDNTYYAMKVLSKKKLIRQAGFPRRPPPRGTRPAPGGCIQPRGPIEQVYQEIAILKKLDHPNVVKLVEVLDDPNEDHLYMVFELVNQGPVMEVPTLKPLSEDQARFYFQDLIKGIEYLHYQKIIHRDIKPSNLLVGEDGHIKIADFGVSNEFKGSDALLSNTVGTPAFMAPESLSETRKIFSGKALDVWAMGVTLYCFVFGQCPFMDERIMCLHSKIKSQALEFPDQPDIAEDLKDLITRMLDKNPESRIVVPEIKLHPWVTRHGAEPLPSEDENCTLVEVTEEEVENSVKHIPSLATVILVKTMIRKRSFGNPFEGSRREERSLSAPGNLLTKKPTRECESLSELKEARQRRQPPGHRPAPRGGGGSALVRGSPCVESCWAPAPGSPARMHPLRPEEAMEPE
Description: as §1

MKNK2 = MKNK2 (Homo sapiens, UniProt Q9HBH9); parameters: Invitrogen Lantha screen kinase binding, per cent inhibition of binding; settings: 10 µM, binder
Description: as §1

PKN2 = PKN2 (Homo sapiens, UniProt Q16513); parameters: Invitrogen Lantha screen kinase binding, per cent inhibition of binding; settings: 10 µM, binder
Description: as §1

MAPK15 = MAPK15 (Homo sapiens, UniProt Q8TD08); parameters: Invitrogen Lantha screen kinase binding, per cent inhibition of binding; settings: 10 µM, binder
Description: as §1

[1] = target: T1, Dual-specificity tyrosine-(Y)-phosphorylation regulated kinase 2 (DYRK) (Homo sapiens, UniProt Q92630); parameters: Invitrogen Lantha screen kinase binding, per cent inhibition of binding; settings: 10 µM, binder
T1 construct: gene DYRK2
Description: as §1

[2] = target: TGF-beta activated kinase 1/MAP3K7 binding protein 1 (MAP3K7IP1) (Homo sapiens, UniProt O43318); parameters: Invitrogen Lantha screen kinase binding, per cent inhibition of binding; settings: 10 µM, binder
Sequence of TGF-beta activated kinase 1/MAP3K7 binding protein 1 (MAP3K7IP1) (O43318 whole entry): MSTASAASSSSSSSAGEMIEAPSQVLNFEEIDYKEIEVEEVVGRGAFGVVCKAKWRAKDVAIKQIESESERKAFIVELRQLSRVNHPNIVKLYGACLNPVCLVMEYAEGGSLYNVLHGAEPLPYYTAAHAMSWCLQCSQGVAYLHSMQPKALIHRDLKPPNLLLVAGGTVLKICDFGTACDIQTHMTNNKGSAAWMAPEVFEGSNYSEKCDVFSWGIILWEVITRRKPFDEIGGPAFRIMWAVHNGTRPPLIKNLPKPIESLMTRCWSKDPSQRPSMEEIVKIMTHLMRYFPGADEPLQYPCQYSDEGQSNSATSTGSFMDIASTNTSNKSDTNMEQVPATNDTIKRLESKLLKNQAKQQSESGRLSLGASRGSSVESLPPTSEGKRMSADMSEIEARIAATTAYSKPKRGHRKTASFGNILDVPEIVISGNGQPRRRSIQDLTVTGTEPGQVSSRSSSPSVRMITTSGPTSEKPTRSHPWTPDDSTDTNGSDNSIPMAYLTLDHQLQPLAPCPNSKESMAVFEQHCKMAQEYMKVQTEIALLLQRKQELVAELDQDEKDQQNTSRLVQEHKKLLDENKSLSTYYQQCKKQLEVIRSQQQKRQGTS
Sequence of TGF-beta activated kinase 1/MAP3K7 binding protein 1 (MAP3K7IP1) (Q15750 whole entry partner): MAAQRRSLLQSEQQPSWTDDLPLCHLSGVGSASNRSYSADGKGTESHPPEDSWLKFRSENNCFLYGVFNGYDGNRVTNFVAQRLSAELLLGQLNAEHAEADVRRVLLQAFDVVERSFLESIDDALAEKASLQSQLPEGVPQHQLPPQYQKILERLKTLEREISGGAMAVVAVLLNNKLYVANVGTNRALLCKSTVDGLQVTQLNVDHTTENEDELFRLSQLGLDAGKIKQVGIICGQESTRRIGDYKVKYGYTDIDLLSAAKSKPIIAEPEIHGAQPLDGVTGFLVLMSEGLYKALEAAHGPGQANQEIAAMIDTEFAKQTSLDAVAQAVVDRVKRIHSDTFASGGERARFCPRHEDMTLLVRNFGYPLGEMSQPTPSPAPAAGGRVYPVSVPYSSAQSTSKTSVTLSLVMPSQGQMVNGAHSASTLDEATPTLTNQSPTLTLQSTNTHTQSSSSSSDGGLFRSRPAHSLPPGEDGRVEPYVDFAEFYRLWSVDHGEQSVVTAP
Description: as §1

[3] = target: T2, Protein kinase, AMP-activated, alpha 1 beta 1 gamma 2 complex (Homo sapiens, UniProt Q13131+Q9UGJ0+Q9Y478); parameters: Invitrogen Lantha screen kinase binding, per cent inhibition of binding; settings: 10 µM, binder
T2 construct: gene PRKAA1
T2 sequence (Q13131 whole entry): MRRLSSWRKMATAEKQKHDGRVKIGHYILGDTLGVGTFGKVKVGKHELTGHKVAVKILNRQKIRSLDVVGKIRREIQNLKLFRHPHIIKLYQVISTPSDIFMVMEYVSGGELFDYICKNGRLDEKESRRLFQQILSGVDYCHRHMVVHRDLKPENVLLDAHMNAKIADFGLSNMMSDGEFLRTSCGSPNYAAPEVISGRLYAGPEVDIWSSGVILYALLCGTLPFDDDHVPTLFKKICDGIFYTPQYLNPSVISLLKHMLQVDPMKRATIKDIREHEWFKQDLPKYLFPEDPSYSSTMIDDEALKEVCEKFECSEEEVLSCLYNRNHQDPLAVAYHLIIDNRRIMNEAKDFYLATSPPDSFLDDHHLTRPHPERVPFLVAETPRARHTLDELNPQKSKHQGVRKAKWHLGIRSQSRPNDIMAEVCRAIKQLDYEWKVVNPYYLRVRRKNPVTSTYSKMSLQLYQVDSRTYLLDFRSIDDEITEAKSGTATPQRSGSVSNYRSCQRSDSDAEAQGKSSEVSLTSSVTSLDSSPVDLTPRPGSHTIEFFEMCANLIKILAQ
T2 sequence (Q9UGJ0 whole entry): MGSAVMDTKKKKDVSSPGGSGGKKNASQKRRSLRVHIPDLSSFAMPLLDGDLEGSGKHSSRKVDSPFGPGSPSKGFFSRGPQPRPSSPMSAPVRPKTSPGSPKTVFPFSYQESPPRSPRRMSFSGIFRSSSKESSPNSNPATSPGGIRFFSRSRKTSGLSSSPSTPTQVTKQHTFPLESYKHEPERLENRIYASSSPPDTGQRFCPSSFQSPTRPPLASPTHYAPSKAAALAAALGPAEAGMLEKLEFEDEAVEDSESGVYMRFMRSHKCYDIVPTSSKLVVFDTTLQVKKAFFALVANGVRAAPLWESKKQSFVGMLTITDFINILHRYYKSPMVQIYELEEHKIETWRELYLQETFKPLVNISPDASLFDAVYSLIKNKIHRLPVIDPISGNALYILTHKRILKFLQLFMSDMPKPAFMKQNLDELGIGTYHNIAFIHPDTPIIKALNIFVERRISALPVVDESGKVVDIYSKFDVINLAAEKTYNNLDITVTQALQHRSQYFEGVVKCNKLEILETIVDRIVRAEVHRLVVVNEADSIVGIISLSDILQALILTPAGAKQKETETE
T2 sequence (Q9Y478 whole entry): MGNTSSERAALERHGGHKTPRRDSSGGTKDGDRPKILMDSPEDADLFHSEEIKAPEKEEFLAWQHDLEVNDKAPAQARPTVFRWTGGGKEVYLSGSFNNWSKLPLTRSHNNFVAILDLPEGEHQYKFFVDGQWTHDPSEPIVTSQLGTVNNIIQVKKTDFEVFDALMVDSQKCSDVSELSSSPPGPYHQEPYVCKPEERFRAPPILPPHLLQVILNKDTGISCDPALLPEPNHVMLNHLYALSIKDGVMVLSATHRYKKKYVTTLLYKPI
Description: as §1

MAP3K11 = MAP3K11 (Homo sapiens, UniProt Q16584); parameters: Invitrogen Lantha screen kinase binding, per cent inhibition of binding; settings: 10 µM, binder
Sequence of MAP3K11 (Q16584 whole entry): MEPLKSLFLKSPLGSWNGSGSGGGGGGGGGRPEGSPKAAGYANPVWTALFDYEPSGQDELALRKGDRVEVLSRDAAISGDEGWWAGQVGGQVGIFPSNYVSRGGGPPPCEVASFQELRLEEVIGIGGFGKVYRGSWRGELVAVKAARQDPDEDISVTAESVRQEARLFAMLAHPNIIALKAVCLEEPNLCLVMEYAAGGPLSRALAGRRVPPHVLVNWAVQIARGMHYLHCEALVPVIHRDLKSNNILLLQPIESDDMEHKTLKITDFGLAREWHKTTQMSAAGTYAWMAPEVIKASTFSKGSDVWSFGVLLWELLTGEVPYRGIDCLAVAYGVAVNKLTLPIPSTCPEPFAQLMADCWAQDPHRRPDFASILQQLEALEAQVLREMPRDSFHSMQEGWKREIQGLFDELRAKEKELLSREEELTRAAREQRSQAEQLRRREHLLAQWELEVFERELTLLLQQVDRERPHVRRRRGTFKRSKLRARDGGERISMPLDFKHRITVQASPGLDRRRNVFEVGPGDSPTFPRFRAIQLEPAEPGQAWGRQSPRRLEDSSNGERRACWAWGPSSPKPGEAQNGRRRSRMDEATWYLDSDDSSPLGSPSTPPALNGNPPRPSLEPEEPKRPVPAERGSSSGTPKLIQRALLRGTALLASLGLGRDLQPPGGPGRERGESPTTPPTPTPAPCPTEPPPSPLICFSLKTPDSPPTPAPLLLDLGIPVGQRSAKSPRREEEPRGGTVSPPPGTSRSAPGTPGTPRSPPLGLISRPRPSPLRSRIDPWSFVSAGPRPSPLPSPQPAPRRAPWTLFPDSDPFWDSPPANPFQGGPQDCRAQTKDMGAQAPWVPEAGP
Description: as §1

[4] = target: T3, Melanocortin MC2 Receptor (Homo sapiens, UniProt Q01718); parameters: Cerep Bioprint off-target panel, functional receptor agonism or antagonism
T3 construct: gene MC2R
T3 sequence (Q01718 whole entry): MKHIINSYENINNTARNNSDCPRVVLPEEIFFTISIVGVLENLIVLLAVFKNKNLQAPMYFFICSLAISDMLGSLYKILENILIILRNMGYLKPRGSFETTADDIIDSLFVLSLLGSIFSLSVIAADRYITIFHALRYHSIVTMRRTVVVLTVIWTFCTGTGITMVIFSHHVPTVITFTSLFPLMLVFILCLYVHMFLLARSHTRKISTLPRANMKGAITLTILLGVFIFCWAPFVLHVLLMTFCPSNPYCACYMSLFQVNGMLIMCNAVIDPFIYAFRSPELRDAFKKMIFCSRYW
Procedure, shortened: (§2)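 Values come from off-target panels: the CEREP panel covers the receptor entries and a kinase panel covers ABL1.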

Muscarinic 1 = target: T4, Muscarinic 1 (Homo sapiens, UniProt P11229); parameters: Cerep Bioprint off-target panel, functional receptor agonism or antagonism
T4 construct: gene CHRM1
T4 sequence (P11229 1-460): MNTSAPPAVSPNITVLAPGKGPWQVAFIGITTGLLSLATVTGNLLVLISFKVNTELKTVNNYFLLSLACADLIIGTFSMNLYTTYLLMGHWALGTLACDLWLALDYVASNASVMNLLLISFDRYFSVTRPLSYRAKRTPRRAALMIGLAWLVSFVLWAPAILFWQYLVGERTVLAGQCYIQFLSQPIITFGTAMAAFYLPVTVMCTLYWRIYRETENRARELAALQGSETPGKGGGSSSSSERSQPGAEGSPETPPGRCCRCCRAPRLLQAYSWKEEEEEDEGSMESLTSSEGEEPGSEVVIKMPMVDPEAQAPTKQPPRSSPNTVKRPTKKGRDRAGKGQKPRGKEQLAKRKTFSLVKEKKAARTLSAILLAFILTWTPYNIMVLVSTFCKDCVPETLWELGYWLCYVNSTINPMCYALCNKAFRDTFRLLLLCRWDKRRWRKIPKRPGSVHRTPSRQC
Procedure, shortened: as §2

[5] = target: T5, Serotonin 5-HT1b Receptor (Homo sapiens, UniProt P28222); parameters: Cerep Bioprint off-target panel, functional receptor agonism or antagonism; settings: agonist
T5 construct: gene HTR1B
Procedure, shortened: as §2

Muscarinic 2 = target: T6, Muscarinic 2 (Homo sapiens, UniProt P08172); parameters: Cerep Bioprint off-target panel, functional receptor agonism or antagonism
T6 construct: gene CHRM2
T6 sequence (P08172 1-466): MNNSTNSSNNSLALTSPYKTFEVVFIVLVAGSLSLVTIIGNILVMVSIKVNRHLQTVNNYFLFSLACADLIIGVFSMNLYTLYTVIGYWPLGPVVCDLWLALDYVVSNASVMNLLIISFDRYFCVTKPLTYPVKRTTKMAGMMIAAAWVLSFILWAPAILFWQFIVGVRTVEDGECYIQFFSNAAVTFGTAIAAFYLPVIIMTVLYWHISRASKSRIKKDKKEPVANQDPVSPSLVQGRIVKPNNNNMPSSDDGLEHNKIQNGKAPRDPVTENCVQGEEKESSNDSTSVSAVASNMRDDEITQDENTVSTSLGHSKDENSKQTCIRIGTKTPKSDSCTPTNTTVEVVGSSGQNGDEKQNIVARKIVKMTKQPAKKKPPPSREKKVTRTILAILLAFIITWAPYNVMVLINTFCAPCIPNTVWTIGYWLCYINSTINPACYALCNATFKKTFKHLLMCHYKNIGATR
Procedure, shortened: as §2

Endothelin A = target: T7, Endothelin A (Homo sapiens, UniProt P25101); parameters: Cerep Bioprint off-target panel, functional receptor agonism or antagonism; settings: agonist
T7 construct: gene EDNRA
Procedure, shortened: as §2

Neurokinin Nk1 = target: T8, Neurokinin Nk1 (Homo sapiens, UniProt P25103); parameters: Cerep Bioprint off-target panel, functional receptor agonism or antagonism; settings: agonist
T8 construct: gene TACR1
Procedure, shortened: as §2

Adenosine A1 Receptor = target: T9, Adenosine A1 Receptor (Homo sapiens, UniProt P30542); parameters: Cerep Bioprint off-target panel, functional receptor agonism or antagonism; settings: agonist
T9 construct: gene ADORA1
T9 sequence (P30542 whole entry): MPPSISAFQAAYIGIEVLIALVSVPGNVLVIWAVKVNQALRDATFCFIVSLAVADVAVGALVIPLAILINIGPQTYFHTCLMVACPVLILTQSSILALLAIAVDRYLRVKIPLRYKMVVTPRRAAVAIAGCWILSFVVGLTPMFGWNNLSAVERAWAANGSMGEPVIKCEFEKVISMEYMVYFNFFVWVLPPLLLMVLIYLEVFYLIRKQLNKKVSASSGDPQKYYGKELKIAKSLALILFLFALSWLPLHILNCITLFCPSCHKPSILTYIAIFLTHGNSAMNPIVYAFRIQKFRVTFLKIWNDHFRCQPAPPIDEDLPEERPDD
Procedure, shortened: as §2

Mu Opioid = target: T10, Mu Opioid (Homo sapiens, UniProt P35372); parameters: Cerep Bioprint off-target panel, functional receptor agonism or antagonism; settings: agonist
T10 construct: gene OPRM1
T10 sequence (P35372 whole entry): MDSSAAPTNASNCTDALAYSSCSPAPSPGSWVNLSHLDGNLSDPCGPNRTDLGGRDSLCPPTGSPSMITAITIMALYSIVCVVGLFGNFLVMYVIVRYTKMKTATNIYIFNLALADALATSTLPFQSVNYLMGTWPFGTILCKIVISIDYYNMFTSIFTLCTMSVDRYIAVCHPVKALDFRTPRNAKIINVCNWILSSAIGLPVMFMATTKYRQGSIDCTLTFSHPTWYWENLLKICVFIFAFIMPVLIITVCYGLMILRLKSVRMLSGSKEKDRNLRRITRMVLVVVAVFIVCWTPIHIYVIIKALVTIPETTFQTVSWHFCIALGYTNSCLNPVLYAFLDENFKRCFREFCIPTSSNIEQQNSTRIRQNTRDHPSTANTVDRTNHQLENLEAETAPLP
Procedure, shortened: as §2

## O=C(O)c1sc2cc(F)sc2c1Cl [PF-07208254, 3-chloro-5-fluorothieno[3,2-b]thiophene-2-carboxylic acid]
TGFBR2
  Lantha Binding % Inhibition PF-07208254: 15.9%
MYLK
  Lantha Binding % Inhibition PF-07208254: 3.3%
TTK
  Lantha Binding % Inhibition PF-07208254: 16.2%
CAMKK2
  Lantha Binding % Inhibition PF-07208254: 7.8%
MKNK2
  Lantha Binding % Inhibition PF-07208254: 11.8%
PKN2
  Lantha Binding % Inhibition PF-07208254: 8.1%
MAPK15
  Lantha Binding % Inhibition PF-07208254: 18.3%
[1]
  Lantha Binding % Inhibition PF-07208254: 29.2%
[2]
  Lantha Binding % Inhibition PF-07208254: 2.6%
[3]
  Lantha Binding % Inhibition PF-07208254: 5.9%
MAP3K11
  Lantha Binding % Inhibition PF-07208254: 6.8%
[4]; 100 µM, agonist
  % (agonism) PF-07208254: 0%
[4]; 100 µM, antagonist
  % Inhibition (antagonism) PF-07208254: -4%
Muscarinic 1; 100 µM, agonist
  % (agonism) PF-07208254: -1%
Muscarinic 1; 100 µM, antagonist
  % Inhibition (antagonism) PF-07208254: 0%
[5]; 100 µM
  % (agonism) PF-07208254: 39%
Muscarinic 2; 100 µM, agonist
  % (agonism) PF-07208254: 39%
Muscarinic 2; 100 µM, antagonist
  % Inhibition (antagonism) PF-07208254: -7%
Endothelin A; 100 µM
  % (agonism) PF-07208254: 4%
Neurokinin Nk1; 100 µM
  % (agonism) PF-07208254: -3%
Adenosine A1 Receptor; 100 µM
  % (agonism) PF-07208254: 0%
Mu Opioid; 100 µM
  % (agonism) PF-07208254: 16%

## CCC1(COc2ccc(-c3csc(-c4ccccc4C(=O)O)n3)cn2)CC1 [PF-07247685, 2-(4-{6-[(1-ethylcyclopropyl)methoxy]pyridin-3-yl}-1,3-thiazol-2-yl)benzoic acid]
TGFBR2
  Lantha Binding % Inhibition PF-07247685: 15.1%
MYLK
  Lantha Binding % Inhibition PF-07247685: 1.3%
TTK
  Lantha Binding % Inhibition PF-07247685: 3.6%
CAMKK2
  Lantha Binding % Inhibition PF-07247685: 1.8%
MKNK2
  Lantha Binding % Inhibition PF-07247685: 1.2%
PKN2
  Lantha Binding % Inhibition PF-07247685: -1.7%
MAPK15
  Lantha Binding % Inhibition PF-07247685: 2.4%
[1]
  Lantha Binding % Inhibition PF-07247685: 1.9%
[2]
  Lantha Binding % Inhibition PF-07247685: -1.9%
[3]
  Lantha Binding % Inhibition PF-07247685: 0.5%
MAP3K11
  Lantha Binding % Inhibition PF-07247685: -2.2%
[4]; 10 µM, agonist
  % (agonism) PF-07247685: 0%
[4]; 10 µM, antagonist
  % Inhibition (antagonism) PF-07247685: 18%
Muscarinic 1; 10 µM, agonist
  % (agonism) PF-07247685: 1%
Muscarinic 1; 10 µM, antagonist
  % Inhibition (antagonism) PF-07247685: 9%
[5]; 10 µM
  % (agonism) PF-07247685: 34%
Muscarinic 2; 10 µM, agonist
  % (agonism) PF-07247685: 3%
Muscarinic 2; 10 µM, antagonist
  % Inhibition (antagonism) PF-07247685: 2%
Endothelin A; 10 µM
  % (agonism) PF-07247685: -4%
Neurokinin Nk1; 10 µM
  % (agonism) PF-07247685: -4%
Adenosine A1 Receptor; 10 µM
  % (agonism) PF-07247685: 0%
Mu Opioid; 10 µM
  % (agonism) PF-07247685: -3%
